Laboratory results from patent US8222236B2, “2-methylene-(20E)-20(22)-dehydro-19-nor-vitamin D analogs” (Wisconsin Alumni Research Foundation, priority 2008, dated 2012).
“Also recorded” adds a separate entry of the source.

Legend:
[1] = test system: intestinal calcium transport; test: Intestinal calcium transport, everted gut sac method, vitamin D-deficient rats; type: in vivo, rat; settings: FIG. 5; for intestinal calcium transport at 260 pmol/day, in words: ip, 4 consecutive days
Method: (§1) Male, weanling Sprague-Dawley rats were placed on Diet 11 (0.47% Ca) diet +AEK oil for one week followed by Diet 11 (0.02% Ca) +AEK oil for 3 weeks. The rats were then switched to a diet containing 0.47% Ca for one week followed by two weeks on a diet containing 0.02% Ca. Dose administration began during the last week on 0.02% calcium diet. Four consecutive ip doses were given approximately 24 hours apart. Twenty-four hours after the last dose, blood was collected from the severed neck and the concentration of serum calcium determined as a measure of bone calcium mobilization. The first 10 cm of the intestine was also collected for intestinal calcium transport analysis using the everted gut sac method.

HL-60 cells = test: HL-60 cell differentiation (nitro blue tetrazolium reduction); type: cell-based, human; settings: FIG. 2; for EC50: HL-60 cells, 4 days
Method: The study drugs were dissolved in ethanol and the concentrations determined using UV spectrophotometry. Serial dilutions were prepared so that a range of drug concentrations could be tested without changing the final concentration of ethanol (≦0.2%) present in the cell cultures.
Human promyelocytic leukemia (HL60) cells were grown in RPMI-1640 medium containing 10% fetal bovine serum. The cells were incubated at 37° C. in the presence of 5% CO2.
HL60 cells were plated at 1.2×10^5 cells/ml. Eighteen hours after plating, cells in duplicate were treated with drug. Four days later, the cells were harvested and a nitro blue tetrazolium reduction assay was performed (Collins et al., 1979; J. Exp. Med. 149:969-974). The percentage of differentiated cells was determined by counting a total of 200 cells and recording the number that contained intracellular black-blue formazan deposits. Verification of differentiation to monocytic cells was determined by measuring phagocytic activity (data not shown).

[2] = test system: bone calcium mobilization; test: Bone calcium mobilization (serum calcium) in vitamin D-deficient rats; type: in vivo, rat; settings: 0.02% Ca diet, FIG. 4
Method: as §1

[3] = test system: 24-hydroxylase (24Ohase) gene promoter; test: In vitro transcription assay, 24-hydroxylase gene promoter luciferase reporter in ROS 17/2.8 (bone) cells; type: cell-based; settings: ROS 17/2.8 cells, 24-hydroxylase promoter-luciferase, 16 hours; FIG. 3; read-out: EC50, transcriptional activity in bone cells
Method: Transcription activity was measured in ROS 17/2.8 (bone) cells that were stably transfected with a 24-hydroxylase (24Ohase) gene promoter upstream of a luciferase reporter gene (Arbour et al., 1998). Cells were given a range of doses. Sixteen hours after dosing the cells were harvested and luciferase activities were measured using a luminometer.
RLU=relative luciferase units.

[4] = molecular target: T1, full-length recombinant rat vitamin D receptor (Rattus norvegicus, UniProt P13053); test: Vitamin D receptor competitive binding with [3H]-1,25(OH)2D3; settings: FIG. 1
T1 construct: Full-length recombinant rat receptor was expressed in E. coli BL21 (DE3) Codon Plus RIL cells; histidine tag (C); made in house; host or cells: E. coli BL21 (DE3) Codon Plus RIL
T1 sequence (P13053 1-423): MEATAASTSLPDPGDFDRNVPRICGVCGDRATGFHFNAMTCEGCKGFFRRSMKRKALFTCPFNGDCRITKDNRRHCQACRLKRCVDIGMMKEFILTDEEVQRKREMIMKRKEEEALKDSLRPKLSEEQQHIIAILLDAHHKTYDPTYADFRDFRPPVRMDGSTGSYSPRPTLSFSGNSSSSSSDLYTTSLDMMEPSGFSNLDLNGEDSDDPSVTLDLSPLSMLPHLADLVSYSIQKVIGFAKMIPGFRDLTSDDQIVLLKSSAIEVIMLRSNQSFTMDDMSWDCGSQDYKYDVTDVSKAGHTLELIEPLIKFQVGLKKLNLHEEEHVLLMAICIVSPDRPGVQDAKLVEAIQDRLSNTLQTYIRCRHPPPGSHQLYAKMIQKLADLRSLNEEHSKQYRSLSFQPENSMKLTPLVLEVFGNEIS
Method: Full-length recombinant rat receptor was expressed in E. coli BL21 (DE3) Codon Plus RIL cells and purified to homogeneity using two different column chromatography systems. The first system was a nickel affinity resin that utilizes the C-terminal histidine tag on this protein. The protein that was eluted from this resin was further purified using ion exchange chromatography (S-Sepharose Fast Flow). Aliquots of the purified protein were quick frozen in liquid nitrogen and stored at −80° C. until use. For use in binding assays, the protein was diluted in TEDK50 (50 mM Tris, 1.5 mM EDTA, pH7.4, 5 mM DTT, 150 mM KCl) with 0.1% Chaps detergent. The receptor protein and ligand concentration were optimized such that no more than 20% of the added radiolabeled ligand was bound to the receptor.
Radiolabeled and unlabeled ligands were added to 100 mcl of the diluted protein at a final ethanol concentration of ≦10%, mixed and incubated overnight on ice to reach binding equilibrium. The following day, 100 mcl of hydroxylapatite slurry (50%) was added to each tube and mixed at 10-minute intervals for 30 minutes. The hydroxylapaptite was collected by centrifugation and then washed three times with Tris-EDTA buffer (50 mM Tris, 1.5 mM EDTA, pH 7.4) containing 0.5% Titron X-100. […] Total binding was determined from the tubes containing only radiolabeled ligand.

Row | SMILES | intestinal calcium transport at 260 pmol/day, in words [1] | EC50 (HL-60 cells) [nM] | bone calcium mobilization activity (serum calcium), in words [2] | dose giving the same mobilization of bone calcium ([2]; ip, 4 consecutive days) [pmol/day] | intestinal calcium transport activity, in words ([1]; vitamin D-deficient rats) | potency on HL-60 cell differentiation relative to 1,25(OH)2D3 (HL-60 cells) [times] | EC50 (HL-60 cells; Homo sapiens, 96 h) [nM] | EC50 [3] [nM] | VDR binding affinity compared to 1,25(OH)2D3 [4] | Ki ([4]; full-length recombinant rat VDR, read-out: Ki, competition with [3H]-1,25(OH)2D3 for binding to the vitamin D receptor) [nM] | dose at which any substantial effect on bone calcium mobilization was seen ([2]; ip, 4 consecutive days) [pmol/day]
1 | C=C1/C(=C\C=C2/CCC[C@]3(C)[C@@H]([C@H](C)CCCC(C)(C)O)CC[C@@H]23)C[C@@H](O)C[C@@H]1O [1,25(OH)2D3, 1α,25-dihydroxyvitamin D3, reference compound] | significant increase | 2 | increased serum calcium levels at all dosages | 87 |  |  |  |  |  |  | 
2 | C=C1[C@H](O)CC(=C/C=C2\CCC[C@]3(C)[C@@H](/C(C)=C/CCC(C)(C)O)CC[C@@H]23)C[C@H]1O [Vit III 20-22E, 2-methylene-(20E)-20(22)-dehydro-19-nor-1α,25-dihydroxyvitamin D3] | promotes intestinal calcium transport |  | less bone calcium mobilization activity; also recorded: relatively low, or little, activity in mobilizing calcium from bone | 780 | about the same activity; also recorded: about the same as or equal to 1,25(OH)2D3 | 3 to 4 | 0.8 | 0.02 | bound with the same affinity | 0.1 | 7020
